Measurements as given in ChEMBL document CHEMBL5303573, “Mapping human microbiome drug metabolism by gut bacteria and their genes” (Nature, 2019).

How the values were obtained:
[1] = The drug is tested on Blautia luti strain: DSM14534 for biotransformation. The drug concentrations were measured before and after a 12-h incubation by liquid-chromatography-coupled mass spectrometry (LC–MS); format: ADME; design: dose 2 uM, timepoint 0 vs 12 hours; details: 2 µM
[2] = bacteroides stercoris, 12 h, 2 µM
Description: The drug is tested on Bacteroides stercoris strain: ATCC43183 for biotransformation. The drug concentrations were measured before and after a 12-h incubation by liquid-chromatography-coupled mass spectrometry (LC–MS)

[3] = The drug is tested on Bacteroides caccae strain: ATCC43185 for biotransformation. The drug concentrations were measured before and after a 12-h incubation by liquid-chromatography-coupled mass spectrometry (LC–MS); details: 2 µM
[4] = bacteroides thetaiotaomicron, 12 h, 2 µM
Description: The drug is tested on Bacteroides thetaiotaomicron strain: 3731 for biotransformation. The drug concentrations were measured before and after a 12-h incubation by liquid-chromatography-coupled mass spectrometry (LC–MS)

[5] = The drug is tested on Enterococcus faecalis strain: V583 for biotransformation. The drug concentrations were measured before and after a 12-h incubation by liquid-chromatography-coupled mass spectrometry (LC–MS); details: 2 µM
[6] = The drug is tested on Clostridium scindens strain: ATCC35704 for biotransformation. The drug concentrations were measured before and after a 12-h incubation by liquid-chromatography-coupled mass spectrometry (LC–MS); details: 2 µM
[7] = The drug is tested on Bifidobacterium ruminantium strain: fecal isolate for biotransformation. The drug concentrations were measured before and after a 12-h incubation by liquid-chromatography-coupled mass spectrometry (LC–MS); details: 2 µM
[8] = The drug is tested on Ruminococcus torques strain: ATCC27756 for biotransformation. The drug concentrations were measured before and after a 12-h incubation by liquid-chromatography-coupled mass spectrometry (LC–MS); format: ADME; design: dose 2 uM, timepoint 0 vs 12 hours; details: 2 µM
[9] = segatella copri, 12 h, 2 µM
Description: The drug is tested on Prevotella copri strain: DSM18205 for biotransformation. The drug concentrations were measured before and after a 12-h incubation by liquid-chromatography-coupled mass spectrometry (LC–MS)

[10] = The drug is tested on Bacteroides dorei strain: DSM17855 for biotransformation. The drug concentrations were measured before and after a 12-h incubation by liquid-chromatography-coupled mass spectrometry (LC–MS); details: phocaeicola dorei, 2 µM
[11] = The drug is tested on Bacteroides sp. WH2 strain: WH2 for biotransformation. The drug concentrations were measured before and after a 12-h incubation by liquid-chromatography-coupled mass spectrometry (LC–MS); details: bacteroides sp. wh2, 12 h, 2 µM
[12] = The drug is tested on Enterobacter cancerogenus strain: ATCC35316 for biotransformation. The drug concentrations were measured before and after a 12-h incubation by liquid-chromatography-coupled mass spectrometry (LC–MS); details: 2 µM
[13] = The drug is tested on Eubacterium ventriosum strain: ATCC27560 for biotransformation. The drug concentrations were measured before and after a 12-h incubation by liquid-chromatography-coupled mass spectrometry (LC–MS); format: ADME; design: dose 2 uM, timepoint 0 vs 12 hours; details: 2 µM
[14] = bacteroides fragilis, 12 h, 2 µM
Description: The drug is tested on Bacteroides fragilis strain: 3397 (T10) for biotransformation. The drug concentrations were measured before and after a 12-h incubation by liquid-chromatography-coupled mass spectrometry (LC–MS)

[15] = The drug is tested on Bifidobacterium longum subsp. Infantis strain: CCUG52486 for biotransformation. The drug concentrations were measured before and after a 12-h incubation by liquid-chromatography-coupled mass spectrometry (LC–MS); details: 2 µM
[16] = parabacteroides distasonis, 12 h, 2 µM
Description: The drug is tested on Parabacteroides distasonis strain: ATCC8503 for biotransformation. The drug concentrations were measured before and after a 12-h incubation by liquid-chromatography-coupled mass spectrometry (LC–MS)

[17] = The drug is tested on Bacteroides fragilis strain: HMW610 for biotransformation. The drug concentrations were measured before and after a 12-h incubation by liquid-chromatography-coupled mass spectrometry (LC–MS); details: 2 µM
[18] = The drug is tested on Bacteroides fragilis strain: ATCC43859 for biotransformation. The drug concentrations were measured before and after a 12-h incubation by liquid-chromatography-coupled mass spectrometry (LC–MS); details: 2 µM
[19] = bacteroides fragilis, 12 h, 2 µM; remark: listed apart in the source
Description: The drug is tested on Bacteroides fragilis strain: NCTC 9343 for biotransformation. The drug concentrations were measured before and after a 12-h incubation by liquid-chromatography-coupled mass spectrometry (LC–MS)

[20] = The drug is tested on Anaerococcus hydrogenalis strain: DSM7454 for biotransformation. The drug concentrations were measured before and after a 12-h incubation by liquid-chromatography-coupled mass spectrometry (LC–MS); details: 2 µM

Compound | Bacterial Biotransformation [1] | Bacterial Biotransformation [2] | Bacterial Biotransformation [3] | Bacterial Biotransformation [4] | Bacterial Biotransformation [5] | Bacterial Biotransformation [6] | Bacterial Biotransformation [7] | Bacterial Biotransformation [8] | Bacterial Biotransformation [9] | Bacterial Biotransformation [10] | Bacterial Biotransformation [11] | Bacterial Biotransformation [12] | Bacterial Biotransformation [13] | Bacterial Biotransformation [14] | Bacterial Biotransformation [15] | Bacterial Biotransformation [16] | Bacterial Biotransformation [17] | Bacterial Biotransformation [18] | Bacterial Biotransformation [19] | Bacterial Biotransformation [20]
CC(=O)OCC(=O)NCCCOc1cccc(CN2CCCCC2)c1 [ROXATIDINE ACETATE] | Compound metabolized | Compound metabolized | Compound metabolized | Compound metabolized | Compound metabolized | Compound metabolized | Compound metabolized | Compound metabolized | Compound metabolized | Compound metabolized | Compound metabolized | Compound metabolized | Compound metabolized | Compound metabolized | Compound metabolized | Compound metabolized | Compound metabolized | Compound metabolized | Compound metabolized | Compound metabolized
CC(C)(Oc1ccc(CCNC(=O)c2ccc(Cl)cc2)cc1)C(=O)O [BEZAFIBRATE] | Compound metabolized | Compound metabolized | Compound metabolized | Compound metabolized | Compound NOT metabolized | Compound metabolized | Compound metabolized | Compound metabolized | Compound metabolized | Compound metabolized | Compound metabolized | Compound metabolized | Compound metabolized | Compound metabolized | Compound metabolized | Compound metabolized | Compound metabolized | Compound metabolized | Compound metabolized | Compound metabolized
